In patent US11584733B2, “Selective histone deacetylase inhibitors for the treatment of human disease” (Shuttle Pharmaceuticals, Inc., priority 2017, dated 2023):

Molecular target: T1, Human recombinant HDAC6 (Homo sapiens, UniProt Q9UBN7)
T1 sequence (Q9UBN7 1-1215): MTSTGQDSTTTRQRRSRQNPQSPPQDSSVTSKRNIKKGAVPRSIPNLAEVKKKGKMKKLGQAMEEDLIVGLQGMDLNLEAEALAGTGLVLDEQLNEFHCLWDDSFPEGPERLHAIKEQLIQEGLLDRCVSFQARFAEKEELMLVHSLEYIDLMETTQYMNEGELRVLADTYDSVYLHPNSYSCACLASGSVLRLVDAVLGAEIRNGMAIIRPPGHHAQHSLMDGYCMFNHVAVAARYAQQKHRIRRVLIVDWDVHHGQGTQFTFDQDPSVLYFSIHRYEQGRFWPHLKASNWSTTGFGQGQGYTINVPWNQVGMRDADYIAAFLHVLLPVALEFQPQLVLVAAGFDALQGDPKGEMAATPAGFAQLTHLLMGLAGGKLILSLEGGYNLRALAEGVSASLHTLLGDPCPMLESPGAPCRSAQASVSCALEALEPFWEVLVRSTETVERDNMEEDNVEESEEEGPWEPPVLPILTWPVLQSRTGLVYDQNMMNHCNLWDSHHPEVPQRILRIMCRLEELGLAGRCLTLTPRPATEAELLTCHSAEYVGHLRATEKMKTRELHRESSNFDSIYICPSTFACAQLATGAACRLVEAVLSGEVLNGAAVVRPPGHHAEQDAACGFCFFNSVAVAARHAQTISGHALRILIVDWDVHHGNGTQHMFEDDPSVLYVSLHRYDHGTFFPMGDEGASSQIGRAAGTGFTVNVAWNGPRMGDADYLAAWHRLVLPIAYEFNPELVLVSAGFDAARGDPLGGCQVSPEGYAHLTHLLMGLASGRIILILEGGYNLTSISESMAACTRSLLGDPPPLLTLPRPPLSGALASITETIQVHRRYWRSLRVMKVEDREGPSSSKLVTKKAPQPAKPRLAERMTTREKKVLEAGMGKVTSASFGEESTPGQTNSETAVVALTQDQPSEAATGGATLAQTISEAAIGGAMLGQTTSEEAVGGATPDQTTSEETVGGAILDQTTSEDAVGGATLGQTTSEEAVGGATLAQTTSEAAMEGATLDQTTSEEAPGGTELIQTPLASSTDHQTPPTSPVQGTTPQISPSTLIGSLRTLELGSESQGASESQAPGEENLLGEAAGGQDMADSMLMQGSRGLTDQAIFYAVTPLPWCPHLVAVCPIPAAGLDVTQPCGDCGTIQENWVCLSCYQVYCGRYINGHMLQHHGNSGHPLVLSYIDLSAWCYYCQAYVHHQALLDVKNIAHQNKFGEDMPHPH
Experiment: HDAC isomer assay, Fluor-de-Lys, HDAC6
Format: biochemical
Conditions: proof of concept; FIGS. 11 and 12; read-out: EC50 against HDAC6
Experimental: The HDAC isomer (HDAC1, 3, and 6) assays were performed as follows:
Materials: Human recombinant HDAC isomer (HDAC1, HDAC3, and HDAC6); Fluor-de-Lys HDAC substrates; 360 nm excitation 460 nm emission Plate Reader; Disposable pipettes; Pipet-aid; Pipette tips; Micro-pipetter; DMSO; Sterile micro-tubes and conical tubes; and Micro-centrifuge.
Test compounds and control preparation: All test compounds' stock solutions were made in 100% DMSO. Test compound dilutions were made in HDAC Assay buffer with a final concentration of DMSO less than or equal to 1%. Vehicle control was HDAC Assay buffer with 1% DMSO.
The reagents for the assay were prepared as follows:
1. All kit components were defrosted and these, and all dilutions described below, were kept on ice until use.
2. A sufficient amount of HDAC source diluted in Assay Buffer (BML-KI143) was prepared to provide for the assays that were performed (# of wells×15 μl). A 30-fold dilution of the HeLa Extract means that 15p L contains 0.5 μl of the undiluted Extract, an appropriate amount to use per well.
3. Dilution(s) of SAHA and/or Test Inhibitors were prepared in Assay Buffer (BML-KI143). Since 10 μl were used per well, and since the final volume of the HDAC reaction was 50p, these inhibitor dilutions were 5× their final concentration.
4. Dilution(s) of the Fluor de Lys® Substrate (BML-KI104; 50 mM) were prepared in Assay Buffer (BML-KI143) that were 2× the desired final concentration(s). For inhibitor screening, substrate concentrations at or below the Km are recommended. Twenty-five μL were used per well. […] Rapid mixing and dilution into room temperature buffer helped to prevent precipitation at high substrate concentration.
5. Shortly before use (<30 min.), sufficient Fluor de Lys® Developer was prepared for the assays to be performed (50 μl per well). First, the Fluor de Lys® Developer Concentrate was diluted 20-fold (e.g. 50 μl plus 950 μl Assay Buffer) in cold Assay Buffer (BML-K1143). […] The addition of SAHA to the Developer insures that HDAC activity stops when the Developer is added. The Developer was kept on ice until use.
1. Assay buffer, diluted trichostatin A or test inhibitor was added to appropriate wells of the microtiter plate.
2. Diluted HeLa extract or other HDAC sample was added to all wells except those that are to be “No Enzyme Controls.”
3. Diluted Fluor de Lys® Substrate and the samples in the microtiter plate were allowed to equilibrate to assay temperature (e.g. 25 or 37° C.).
4. HDAC reactions were initiated by adding diluted substrate (25 μl) to each well and mixing thoroughly.
5. HDAC reactions were allowed to proceed for desired length of time and then stop them by addition of Fluor de Lys® Developer (50 μl). The plates were incubated at room temperature (25° C.) for 10-15 min.
6. Samples were read in a microtiter-plate reading fluorimeter capable of excitation at a wavelength in the range 350-380 nm and detection of emitted light in the range 440-460 nm.

EC50 [µM]	Compound
> 25	Nc1cccc2c1CN(C1CCC(=O)NC1=O)C2=O (centres unmarked) [lenalidomide, reference compound]
> 25	O=C1CCCC(=O)N1 [glutaramide, glutarimide, reference compound]
